Test results as given in patent US10905738B2, “Synthetic peptides, prodrugs, pharmaceutical compositions and uses” (Biozeus Desenvolvimento De Produtos Biofarmacêuticos, priority 2018, dated 2021).
Where a SMILES comes first, the peptide text is derived from it.

Legend:
[1] = test system: monocrotaline-induced model of pulmonary arterial hypertension (PAH); assay: hemodynamic parameters and heart remodeling in monocrotaline-induced model of PAH; type: in vivo, male Wistar Rats; settings: 0.06 mg/kg intranasal twice daily for 14 days
From the text: The monocrotaline (MCT) model is the most widely used animal model of PAH, being the oldest in existence and best described among the available models. This model offers the advantage of mimicking several key aspects of human PAH, including vascular remodeling, proliferation of smooth muscle cells, endothelial dysfunction, up-regulation of inflammatory cytokines, and right ventricle failure, after a single intraperitoneal or subcutaneous MCT injection (GOMEZ-ARROYO, J. G., FARKAS, L., ALHUSSAINI, A. A., FARKAS, D., KRASKAUSKAS, D., VOELKEL, N. F., BOGAARD, H. J. The Monocrotaline Model of Pulmonary Hypertension in Perspective. Am J Physiol Lund Cell Mol Physiol, 302(4): L363-9. 2012).
The currently preferred species for the study of MCT-induced PAH is the rat, with clinical signs of the illness manifesting in 3-7 days after the MCT injection in the form of anorexia, listlessness, failure to gain weight, and tachypnea. As the lung injury and vascular remodeling progress, the animals develop variable degrees of dyspnea, weakness, diarrhea and peripheral cyanosis (SCHOENTAL R., HEAD, M. A. Pathological changes in rats as a result of treatment with monocrotaline. Br J Cancer, 9(1):229-37. 1955). One week after the MCT injection, endothelial damage, inflammatory infiltration, and edema can be observed, but no increase in pulmonary arterial pressure (PAP). After two weeks, PAP is increased leading to right ventricle (RV) hypertrophy by the third week after drug administration (WEST, J., HEMMES, A. Experimental and transgenic models of pulmonary hypertension. Compr Physiol, 1(2):769-82. 2011).
To assess the potential benefit of SEQ ID NO: 19 in the treatment of PAH, we used adult healthy male Wistar Rats, which were then randomized into two groups: monocrotaline-induced PAH (MCT, n=14), in which animals received 60 mg/kg of MCT intraperitoneally (C2401, Sigma Chemical Co., St Louis, Mo., USA, Batch Number: WXBC4737V) and 2) control (CTRL, n=7), in which animals received a similar volume of saline solution intraperitoneally. This would be day 0 of the study. On the same day, prior to being randomized, the animals were subjected to echocardiographic analysis to establish a baseline. On day 14, another echocardiography was done, and PAH animals were further randomized to receive intranasal saline (SAL) or SEQ ID NO: 19 (0.06 mg/kg), twice daily for 14 days. On day 28, echocardiographies were repeated, RV exit area, left ventricle (LV) area, and PAT/PET (pulmonary arterial acceleration time (PAT)/pulmonary arterial ejection time (PET) ratio). In the PAH disease, the increase of PAP leads to an increase in RV area due to the increased pressure, and a decrease in the LV area, due to a reduction in blood flow to the left ventricle. […] Hemodynamic parameters were measured by invasive RV catheterization, including the systolic pressure of RV (RVSP) and the dP/dt ratio (a derivative of pressure/derivative of maximum time), which is correlated to the pressure in the RV.
The experiments were analyzed with two-way ANOVA, followed by Bonferroni's post-test to determine statistical significance. […]

[2] = test system: smooth muscle of tracheal rings; assay: spasmodic contraction of tracheal rings ex vivo (histamine-induced); parameters: species or system Dunkin-Hartley guinea pigs; settings: for Effectiveness (Emax) (%): relaxation of tracheal rings contracted by histamine (50 μM); for Effectiveness (Emax) (%) / Potency (pEC50) Molar: mean±SEM; for Potency (pEC50) Molar: tracheal rings contracted by histamine (50 μM), peptides 0.01 to 10 μM
Method: The magnitude of the relaxing effect of the peptides was evaluated by means of a model of spasmodic contraction of tracheal rings ex vivo, largely employed to test new bronchodilating agents (see CULLUM, V. A., FARMER, J. B., JACK, D., LEVY, G. P. Salbutamol: a new, selective β-adrenoceptive receptor stimulant. British journal of pharmacology, 35(1): 141-151. 1969; KAO, C. H., CHU, Y. H., WANG, H. W. Effects of lidocaine on rat's isolated tracheal smooth muscle. European Archives of Oto-Rhino-Laryngology, 267(5): 817-820. 2010; SORIANO-URSÚA, M. A., VALENCIA-HERNÁNDEZ, I., ARELLANO-MENDOZA, M. G., CORREA-BASURTO, J., TRUJILLO-FERRARA, J. G. Synthesis, pharmacological and in silico evaluation of 1-(4-dihydroxy-3, 5-dioxa-4-borabycyclo [4.4.0] deca-7,9,11-trien-9-yl)-2-(tert-butylamine) ethanol, a compound designed to act as a β2 adrenoceptor agonist. European journal of medicinal chemistry, 44(7): 2840-2846. 2009).
For each test, Dunkin-Hartley guinea pigs (400-500 g) were euthanized in a CO2 atmosphere; subsequently, the trachea was exposed, removed and sectioned in segments of 1 to 3 cartilaginous tracheal rings. Each segment was transferred to an individual organ bath system containing Krebs nutritive solution (NaCl 118 mM; KCl […]; CaCl2) 2.5 mM; MgSO4 1.2 mM; KH2PO4 1.2 mM; NaHCO324 mM; glucose 11 mM) at 37° C., under constant aeration with a carbogenic mixture (95% of O2 and 5% of CO2). In each system, a stem fixed to the base of the container and another connected to an isometric transducer (GRASS FT-03) made up the support of the fragments. A data digitizing system connected to the isometric transducer allowed the recording of tension variations produced by the contraction of the tracheal rings (PowerLab™ 16/30, LabChart, version 8.1, AD Instruments, Australia). The basal tension was adjusted to 1 g, and subsequently, the contractility of the fragments was evaluated by a stimulus with carbachol (2.5 μM). After 1 h at rest, the basal tension was recovered and the tissues were subjected to contraction induced by histamine (50 μM) followed by exposure to increasing concentrations of the treatments (0.01 to 10 μM; n=8) or the comparator PnTx(19).
Table 1 lists the mean±SEM of the potency values, shown as the negative logarithm of the concentration that reduced the voltage to 50% of the maximum Histamine-induced contraction (pEC50), and efficacy (Emax), calculated from at least 8 independent tests using the sigmoid nonlinear regression equation of the software Graph Prism 5.0 (GraphPad Software, La Jolla, Ca, USA).

[3] = RV catheterization, vs MCT+Vehicle
[4] = echocardiography, vs MCT+vehicle

Compound	dP/dt Max ratio [1, 3]	systolic pressure of RV (RVSP) [1, 3]	LV area [1, 4]	PAT/PET ratio [1, 4]	RV exit area [1, 4]	Effectiveness (Emax) (%) [2]	Potency (pEC50) Molar [2]	relaxing effect on airway (tracheal ring) smooth muscle, in words ([2]; histamine-induced contraction ex vivo)
CC[C@H](C)[C@H](NC(=O)[C@H](Cc1c[nH]c2ccccc12)NC(=O)[C@H](Cc1ccccc1)NC(C)=O)C(=O)N[C@@H](C)C(=O)N[C@@H](Cc1c[nH]c2ccccc12)C(=O)N[C@@H](Cc1ccc(O)cc1)C(=O)N[C@@H](CCCCN)C(=O)N[C@@H](CC(C)C)C(=O)N[C@@H](C)C(N)=O [SEQ ID NO: 19, Ac-Phe-Trp-Ile-Ala-Trp-Tyr-Lys-Leu-Ala-NH2] (Ac-FWIAWYKLA-NH2)	decrease	decrease in RVSP	increase in LV area	increases the PAT/PET ratio to values similar to the non-treated group (control)	decrease in RV exit area	40.0 ± 3.4%	7.3 ± 0.4 Molar	–
CC[C@H](C)[C@H](NC(C)=O)C(=O)N[C@@H](C)C(=O)N[C@@H](Cc1c[nH]c2ccccc12)C(=O)N[C@@H](Cc1ccc(O)cc1)C(=O)N[C@@H](CCCCN)C(N)=O [SEQ ID NO: 24, Ac-Ile-Ala-Trp-Tyr-Lys-NH2] (Ac-IAWYK-NH2)	–	–	–	–	–	29.0 ± 1.0%	7.9 ± 0.3 Molar	effective
